Assay results taken from paper PMC7224190, “Pharmacological inhibition of PRMT7 links arginine monomethylation to the cellular stress response” (Nature Communications, 2020).

Molecular target: T1, G9A (Homo sapiens, UniProt Q96KQ7)
T1 construct: gene EHMT2
T1 sequence (Q96KQ7 1-1210): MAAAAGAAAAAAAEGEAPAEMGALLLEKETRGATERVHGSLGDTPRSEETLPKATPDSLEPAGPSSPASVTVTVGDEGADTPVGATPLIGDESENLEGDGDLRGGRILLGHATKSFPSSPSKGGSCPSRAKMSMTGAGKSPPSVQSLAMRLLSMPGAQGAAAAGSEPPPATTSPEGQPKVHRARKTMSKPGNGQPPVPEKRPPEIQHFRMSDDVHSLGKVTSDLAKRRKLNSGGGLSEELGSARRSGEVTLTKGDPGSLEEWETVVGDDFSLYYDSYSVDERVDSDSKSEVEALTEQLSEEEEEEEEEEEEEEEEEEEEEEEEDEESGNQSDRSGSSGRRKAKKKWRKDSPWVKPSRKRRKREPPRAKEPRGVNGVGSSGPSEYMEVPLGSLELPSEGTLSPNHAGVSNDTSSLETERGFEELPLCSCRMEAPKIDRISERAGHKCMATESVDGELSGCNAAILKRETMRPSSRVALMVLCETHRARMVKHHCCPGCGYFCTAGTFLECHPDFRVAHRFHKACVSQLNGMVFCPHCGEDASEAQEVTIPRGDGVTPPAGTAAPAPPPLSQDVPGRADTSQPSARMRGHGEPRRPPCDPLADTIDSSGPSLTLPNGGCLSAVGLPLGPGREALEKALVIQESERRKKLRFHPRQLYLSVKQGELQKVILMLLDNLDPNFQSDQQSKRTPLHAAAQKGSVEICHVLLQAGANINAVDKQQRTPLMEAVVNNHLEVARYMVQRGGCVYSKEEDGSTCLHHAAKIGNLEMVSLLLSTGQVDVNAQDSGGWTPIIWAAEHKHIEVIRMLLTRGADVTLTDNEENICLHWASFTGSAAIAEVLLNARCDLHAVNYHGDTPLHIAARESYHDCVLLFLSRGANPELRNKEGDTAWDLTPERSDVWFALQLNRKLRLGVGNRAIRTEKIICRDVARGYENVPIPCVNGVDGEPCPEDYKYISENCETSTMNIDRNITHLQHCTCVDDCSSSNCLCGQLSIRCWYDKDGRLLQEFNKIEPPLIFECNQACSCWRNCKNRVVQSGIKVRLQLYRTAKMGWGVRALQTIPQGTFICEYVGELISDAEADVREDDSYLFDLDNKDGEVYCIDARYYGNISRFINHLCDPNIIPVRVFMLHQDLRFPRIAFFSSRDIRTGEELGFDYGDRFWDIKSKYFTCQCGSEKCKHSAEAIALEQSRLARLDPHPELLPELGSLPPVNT
Assay: biochemical
Parameters: radiometric methyltransferase selectivity assay with tritiated SAM, per cent activity
Details: read-out: % of control remaining
Experimental: The methyltransferase selectivity was assessed at two compound concentrations of 1 and 10 μM by radiometric assays using tritiated-SAM. For methyltransferases: MLL1, MLL3, EZH1 (PRC2), and EZH2 (PRC2), G9a, GLP, SUV39H1, SUV39H2, SUV420H1, SUV420H2, SETD2, SETD8, SETDB1, SETD7, PRMT1, PRMT3, PRMT4, PRMT5/ MEP50 complex, PRMT6, PRMT7, PRMT8, PRMT9, PRDM9, SMYD2, SMYD3, DNMT1, and BCDIN3D the incorporation of a tritium-labeled methyl group into biotinylated substrate was monitored using scintillation proximity assay (SPA). Briefly, a 10 μL reaction containing ^3H-SAM and substrate at concentrations close to the apparent Km values for each enzyme (balanced conditions) was prepared. The reactions were quenched with 10 μL of 7.5 M guanidine hydrochloride; 180 μL of 20 mM Tris buffer (pH 8.0) were added, and the mixture was transferred to a 96-well FlashPlate and incubated for 1 h. The counts per minute (CPM) was measured on a TopCount plate reader. The CPM in the absence of compound or enzyme was defined as 100% activity and background (0%), respectively, for each dataset[74]–[76]. Selectivity of SGC8158 against 342 kinases was evaluated in a kinase panel TR-FRET assay at 1 and 0.1 μM compound in duplicates as described before. Briefly, tagged kinases were incubated with compound and staurosporine-based fluorescent probe where the binding was detected using Tb conjugated anti-tag antibody energy transfer to the probe. Excitation wavelength was 337 nm and fluorescent emission signal was measured for Tb (486 nm) and fluorescent probe (BODIPY, 515 nm). Specific and non-specific binding was determined in the absence and presence of unlabeled staurosporine.

Structure (SMILES)	remaining activity at 1 µM [%]	remaining activity at 10 µM [%]
CC1(C)O[C@@H]2[C@H](O1)[C@@H](CSCCCCNCc1cccc(-c3ccc(Cl)cc3)c1)O[C@H]2n1cnc2c(N)ncnc21 [SGC8158N]	99	98
Nc1ncnc2c1ncn2[C@@H]1O[C@H](CSCCCCNCc2cccc(-c3ccc(Cl)cc3)c2)[C@@H](O)[C@H]1O [SGC8158]	100	99
